Patent publication US20230116972A1, “CD38 MODULATORS AND METHODS OF USE THEREOF” (Cytokinetics, Inc., priority 2021, published 2023)

How the values were obtained:
[1] = target: T1, human CD38 (Homo sapiens, UniProt P28907); test: human recombinant CD38 enzyme assay (hydrolysis of NAD+); type: biochemical; details: human recombinant CD38, 0.4 nM enzyme, 62.5 μM NAD+; read-out: hCD38 BioChem IC50
T1 sequence (P28907 1-300): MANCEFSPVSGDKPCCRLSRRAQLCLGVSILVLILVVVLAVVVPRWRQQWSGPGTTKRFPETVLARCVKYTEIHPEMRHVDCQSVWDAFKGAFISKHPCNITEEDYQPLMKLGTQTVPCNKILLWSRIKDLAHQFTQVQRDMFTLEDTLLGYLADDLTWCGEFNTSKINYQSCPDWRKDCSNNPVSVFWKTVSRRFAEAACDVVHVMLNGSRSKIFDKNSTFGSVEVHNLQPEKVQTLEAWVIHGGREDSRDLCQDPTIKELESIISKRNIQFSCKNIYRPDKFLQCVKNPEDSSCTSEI
Summary of the method: (§1)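 Cell-free recombinant enzyme, NAD+ substrate, 60 min at RT. Stop/detect: ethanol/ADH plus semicarbazide and a CD38 inhibitor (15 min), then NaOH, then resazurin/diaphorase (15 min). Remaining NAD+ read as resorufin fluorescence, Ex/Em 540/590 nm. Inhibition fitted from dose responses.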

[2] = target: T2, endogenous CD38 in HL60 cells (Homo sapiens, UniProt P28907); test: cellular CD38 assay in HL60 cells (cellular NAD levels); type: cell-based; details: all-trans retinoic acid, 24 hours, read-out: hCD38 HL60 ATRA NAD Cell Diaphorase IC50
T2 construct: endogenous in cells; host or cells: HL60 (leukemic cells, treated with all-trans retinoic acid)
T2 sequence (P28907 1-300): T1 sequence (P28907 1-300)
Summary of the method: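 HL60 cells (20000/well) were treated with compound in DMSO for 24 h. Cellular NAD was then measured by an enzymatic cycling mix (alcohol dehydrogenase, diaphorase, 40 uM resazurin, 10 uM FMN, 3% ethanol, Triton X-100, pH 8.4).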

[3] = target: T3, mouse CD38 (Mus musculus, UniProt P56528); test: mouse recombinant CD38 enzyme assay (hydrolysis of NAD+); type: biochemical; details: read-out: mCD38 BioChem IC50
T3 sequence (P56528 1-304): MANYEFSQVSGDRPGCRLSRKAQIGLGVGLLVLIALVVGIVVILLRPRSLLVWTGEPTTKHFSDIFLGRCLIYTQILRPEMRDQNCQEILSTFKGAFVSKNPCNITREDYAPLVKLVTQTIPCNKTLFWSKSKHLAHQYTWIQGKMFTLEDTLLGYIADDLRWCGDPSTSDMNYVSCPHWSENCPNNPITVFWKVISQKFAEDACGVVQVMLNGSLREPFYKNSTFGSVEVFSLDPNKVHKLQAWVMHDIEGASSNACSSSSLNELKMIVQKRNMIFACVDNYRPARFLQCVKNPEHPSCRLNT
Summary of the method: as §1

Row | IC50 [1] [nM] | IC50 [2] [nM] | IC50 [3] [nM] | Structure (SMILES)
1 | 22 | 1180 | 13 | Cn1cncc1-c1cncc(C(=O)N[C@H]2CC[C@H](C(F)F)CC2)n1 [Compound 92, N-((1r,4r)-4-(difluoromethyl)cyclohexyl)-6-(1-methyl-1H-imidazol-5-yl)pyrazine-2-carboxamide]
2 | 3.8 | 1130 | 1 | Cn1cncc1-c1nc(C(=O)Nc2ccc(C(F)(F)F)nc2)cc(C2CCOCC2)n1 [Compound 198, 2-(1-methyl-1H-imidazol-5-yl)-6-(tetrahydro-2H-pyran-4-yl)-N-(6-(trifluoromethyl)pyridin-3-yl)pyrimidine-4-carboxamide]
3 | 1.9 | 499 | 1 | COCCOc1cc(C(=O)Nc2ccc(C(F)F)nc2)nc(-n2ccnc2)c1 [Compound 244, N-(6-(difluoromethyl)pyridin-3-yl)-6-(1H-imidazol-1-yl)-4-(2-methoxyethoxy)picolinamide]
4 | 24 | 1360 | 10 | Cn1cncc1-c1cncc(C(=O)N[C@H]2CC[C@H](C)CC2)n1 [Compound 104, 6-(1-methyl-1H-imidazol-5-yl)-N-((1r,4r)-4-methylcyclohexyl)pyrazine-2-carboxamide]
5 | 21 | 2240 | 2 | COc1cc(C(=O)N[C@H]2CC[C@H](C)CC2)nc(-n2ccnc2)c1 [Compound 166, 6-(1H-imidazol-1-yl)-4-methoxy-N-((1r,4r)-4-methylcyclohexyl)picolinamide]
6 | 21.4 | 6610 | 7.1 | Cn1cncc1-c1nc(C(=O)NC23CC(C(C)(C)O)(C2)C3)cc(C2CCOCC2)n1 [Compound 292, N-(3-(2-hydroxypropan-2-yl)bicyclo[1.1.1]pentan-1-yl)-2-(1-methyl-1H-imidazol-5-yl)-6-(tetrahydro-2H-pyran-4-yl)pyrimidine-4-carboxamide]
7 | 2.4 | 557 | 1.4 | COc1cc(-c2cncn2C)nc(C(=O)Nc2ccc(C(F)(F)F)nc2)n1 [Compound 234, 4-methoxy-6-(1-methyl-1H-imidazol-5-yl)-N-(6-(trifluoromethyl)pyridin-3-yl)pyrimidine-2-carboxamide]
8 | 4.2 | 933 | 1.3 | Cn1cncc1-c1nc(C(=O)Nc2ccc(C(F)(F)F)nc2)cc(C2(C)COC2)n1 [Compound 309, 2-(1-methyl-1H-imidazol-5-yl)-6-(3-methyloxetan-3-yl)-N-(6-(trifluoromethyl)pyridin-3-yl)pyrimidine-4-carboxamide]
9 | 243 | 2000 | 358 | O=C(Nc1cccnc1)c1cc(-n2ccnc2)ccn1 [Compound 1, 4-(1H-imidazol-1-yl)-N-(pyridin-3-yl)picolinamide]
10 | 46.2 | 2010 | 29.8 | O=C(N[C@H]1C[C@H](c2ccccc2)C1)c1nccc(-n2ccnc2)n1 [Compound 211, 4-(1H-imidazol-1-yl)-N-((1r,3r)-3-phenylcyclobutyl)pyrimidine-2-carboxamide]
11 | 2110 | 8050 | 741 | O=C(Nc1cccnc1)c1cccc(-c2cncs2)n1 [Compound 11, N-(pyridin-3-yl)-6-(thiazol-5-yl)picolinamide]
12 | 252 | 12500 | 270 | O=C(NC1CCN(c2ccccc2)CC1)c1nccc(-n2ccnc2)n1 [Compound 263, 4-(1H-imidazol-1-yl)-N-(1-phenylpiperidin-4-yl)pyrimidine-2-carboxamide]
13 | 1190 | 4350 | 433 | O=C(Nc1cccnc1)c1ccnc(-n2ccnc2)c1 [Compound 10, 2-(1H-imidazol-1-yl)-N-(pyridin-3-yl)isonicotinamide]
14 | 549 | 4460 | 223 | O=C(Nc1ccncc1)c1cc(-n2ccnc2)ccn1 [Compound 7, 4-(1H-imidazol-1-yl)-N-(pyridin-4-yl)picolinamide]
15 | 404 | 10800 | 185 | Cn1cncc1-c1ccnc(C(=O)N[C@H]2C[C@@H](c3ccc(C(F)(F)F)nc3)C2)n1 [Compound 274, 4-(1-methyl-1H-imidazol-5-yl)-N-((1s,3s)-3-(6-(trifluoromethyl)pyridin-3-yl)cyclobutyl)pyrimidine-2-carboxamide]
16 | 14 | 1050 | 1 | CO[C@H]1CC[C@H](NC(=O)c2cc(C)nc(-c3cncn3C)n2)CC1 [Compound 121, N-((1r,4r)-4-methoxycyclohexyl)-6-methyl-2-(1-methyl-1H-imidazol-5-yl)pyrimidine-4-carboxamide]
17 | 98 | 5820 | 66 | CC(=O)N1CCC(NC(=O)c2cccc(-n3ccnc3)n2)CC1 [Compound 44, N-(1-acetylpiperidin-4-yl)-6-(1H-imidazol-1-yl)picolinamide]
18 | 131 | 3360 | 32 | Cn1cncc1-c1cccc(C(=O)N[C@H]2CC[C@H](C(F)F)CC2)n1 [Compound 77, N-(4-(difluoromethyl)cyclohexyl)-6-(1-methyl-1H-imidazol-5-yl)picolinamide]
19 | 6 | 415 | 6 | O=C(Nc1cccc(F)c1)c1cccc(-n2ccnc2)n1 [Compound 18, N-(3-fluorophenyl)-6-(1H-imidazol-1-yl)picolinamide]
20 | 7 | 345 | 9 | O=C(Nc1ccc(F)cc1)c1cccc(-n2ccnc2)n1 [Compound 19, N-(4-fluorophenyl)-6-(1H-imidazol-1-yl)picolinamide]
21 | 104 | 8540 | 35 | COCCO[C@H]1CC[C@H](NC(=O)c2nccc(-c3cncn3C)n2)CC1 [Compound 209, N-((1r,4r)-4-(2-methoxyethoxy)cyclohexyl)-4-(1-methyl-1H-imidazol-5-yl)pyrimidine-2-carboxamide]
22 | 2 | 187 | 5 | O=C(Nc1ccc(C(F)F)nc1)c1ccnc(-n2ccnc2)n1 [Compound 93, N-(6-(difluoromethyl)pyridin-3-yl)-2-(1H-imidazol-1-yl)pyrimidine-4-carboxamide]
23 | 313 | 7820 | 420 | O=C(Nc1ccccc1)c1cc(-n2ccnc2)ccn1 [Compound 5, 4-(1H-imidazol-1-yl)-N-phenylpicolinamide]
24 | 8.1 | 3730 | 1.2 | Cn1cncc1-c1nc(C(=O)NC2CC3(COC3)C2)cc(C2CCC(F)(F)CC2)n1 [Compound 286, 6-(4,4-difluorocyclohexyl)-2-(1-methyl-1H-imidazol-5-yl)-N-(2-oxaspiro[3.3]heptan-6-yl)pyrimidine-4-carboxamide]
25 | 19 | 2480 | 4 | COc1cc(C(=O)N[C@H]2CC[C@H](OC)CC2)nc(-n2ccnc2)n1 [Compound 125, 2-(1H-imidazol-1-yl)-6-methoxy-N-((1r,4r)-4-methoxycyclohexyl)pyrimidine-4-carboxamide]
26 | 61 | 4810 | 12 | CO[C@H]1CC[C@H](NC(=O)c2cc(C(F)(F)F)cc(-n3ccnc3)n2)CC1 [Compound 60, 6-(1H-imidazol-1-yl)-N-(4-methoxycyclohexyl)-4-(trifluoromethyl)picolinamide]
27 | 3.1 | 253 | 1.9 | COc1cc(C(=O)Nc2ccc(C(F)F)nc2)nc(-n2ccnc2)c1 [Compound 187, N-(6-(difluoromethyl)pyridin-3-yl)-6-(1H-imidazol-1-yl)-4-methoxypicolinamide]
28 | 91 | 3430 | 190 | NC(=O)c1cncn1-c1cccc(C(=O)Nc2ccc(C(F)(F)F)nc2)n1 [Compound 66, 6-(5-carbamoyl-1H-imidazol-1-yl)-N-(6-(trifluoromethyl)pyridin-3-yl)picolinamide]
29 | 9.3 | 2310 | 1.9 | Cn1cncc1-c1nc(C(=O)NC2CCC(F)(F)CC2)cc(C2CCOCC2)n1 [Compound 200, N-(4,4-difluorocyclohexyl)-2-(1-methyl-1H-imidazol-5-yl)-6-(tetrahydro-2H-pyran-4-yl)pyrimidine-4-carboxamide]
30 | 104 | 1660 | 45 | O=C(Nc1ccc(F)cc1F)c1cccc(-n2ccnc2)n1 [Compound 24, N-(2,4-difluorophenyl)-6-(1H-imidazol-1-yl)picolinamide]
